Measured values taken from ChEMBL document CHEMBL1201861, “Genomics of Drug Sensitity in Cancer screening data, Wellcome Trust Sanger Institute”.

Legend:
Assay in all cases: cells
Assay type in all cases: functional, cell-based, Homo sapiens
ESS-1 = tested on: ESS-1;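 further: growth inhibition of human ESS-1 cells, read out by a cell viability assay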
Description: SANGER: Inhibition of human ESS-1 cell growth in a cell viability assay.

UMC-11 = tested on: UMC-11;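 further: growth inhibition of UMC-11 cells, read out with a cell viability assay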
Description: SANGER: Inhibition of human UMC-11 cell growth in a cell viability assay.

SAOS-2 = tested on: SAOS-2;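 further: growth inhibition of human Saos-2 cells determined by a cell viability assay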
Description: SANGER: Inhibition of human Saos-2 cell growth in a cell viability assay.

RVH-421 = tested on: RVH-421
Description: SANGER: Inhibition of human RVH-421 cell growth in a cell viability assay.

HT55 = tested on: HT55;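 further: cell viability readout measuring growth inhibition of human HT55 cells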
Description: SANGER: Inhibition of human HT55 cell growth in a cell viability assay.

PFSK-1 = tested on: PFSK-1;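 further: cell viability assay measuring how strongly compounds suppress growth of human PFSK-1 cells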
Description: SANGER: Inhibition of human PFSK-1 cell growth in a cell viability assay.

HuO9 = tested on: HuO9;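 further: growth inhibition of HuO9 cells, read out with a cell viability assay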
Description: SANGER: Inhibition of human HuO9 cell growth in a cell viability assay.

KP-N-YN = tested on: KP-N-YN;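 further: growth inhibition of KP-N-YN cells, read out with a cell viability assay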
Description: SANGER: Inhibition of human KP-N-YN cell growth in a cell viability assay.

NCI-H2122 = tested on: NCI-H2122;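 further: growth inhibition of the cells, read out with a cell viability assay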
Description: SANGER: Inhibition of human NCI-H2122 cell growth in a cell viability assay.

PA-1 = tested on: PA-1;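 further: IC50 for suppression of PA-1 cell proliferation, determined with a cell viability read-out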
Description: SANGER: Inhibition of human PA-1 cell growth in a cell viability assay.

HT-1376 = tested on: HT-1376
Description: SANGER: Inhibition of human HT-1376 cell growth in a cell viability assay.

BHT-101 = tested on: BHT-101
Description: SANGER: Inhibition of human BHT-101 cell growth in a cell viability assay.

SW1463 = tested on: SW1463;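 further: growth inhibition of SW1463 cells, determined with a cell viability assay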
Description: SANGER: Inhibition of human SW1463 cell growth in a cell viability assay.

NB7 = tested on: NB7;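 further: growth inhibition of NB7 cells, read out with a cell viability assay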
Description: SANGER: Inhibition of human NB7 cell growth in a cell viability assay.

BFTC-905 = tested on: BFTC-905
Description: SANGER: Inhibition of human BFTC-905 cell growth in a cell viability assay.

CAL-51 = tested on: CAL-51;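 further: human CAL-51 cell line, growth inhibition read out via a cell viability assay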
Description: SANGER: Inhibition of human CAL-51 cell growth in a cell viability assay.

KYSE-150 cell line = tested on: KYSE-150 cell line;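 further: growth inhibition of human KYSE-150 cells, read out with a cell viability assay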
Description: SANGER: Inhibition of human KYSE-150 cell growth in a cell viability assay.

HOP-92 = tested on: HOP-92;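 further: cell viability readout, with IC50 reflecting inhibition of HOP-92 cell growth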
Description: SANGER: Inhibition of human HOP-92 cell growth in a cell viability assay.

MG-63 = tested on: MG-63;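 further: growth inhibition of human MG-63 cells, read out with a cell viability assay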
Description: SANGER: Inhibition of human MG-63 cell growth in a cell viability assay.

H-EMC-SS = tested on: H-EMC-SS
Description: SANGER: Inhibition of human H-EMC-SS cell growth in a cell viability assay.

HCT-15 = tested on: HCT-15;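 further: cell viability readout, IC50 reflecting suppression of HCT-15 cell growth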
Description: SANGER: Inhibition of human HCT-15 cell growth in a cell viability assay.

CP50-MEL-B = tested on: CP50-MEL-B;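 further: growth inhibition of the human cell line, measured with a cell viability read-out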
Description: SANGER: Inhibition of human CP50-MEL-B cell growth in a cell viability assay.

JEG-3 = tested on: JEG-3;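 further: growth inhibition of human JEG-3 cells, read out with a cell viability assay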
Description: SANGER: Inhibition of human JEG-3 cell growth in a cell viability assay.

CAL-54 = tested on: CAL-54;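 further: growth inhibition of CAL-54 cells, read out by a viability measurement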
Description: SANGER: Inhibition of human CAL-54 cell growth in a cell viability assay.

YKG-1 = tested on: YKG-1;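 further: cell growth inhibition, read out with a viability assay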
Description: SANGER: Inhibition of human YKG-1 cell growth in a cell viability assay.

SW1710 = tested on: SW1710;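 further: growth inhibition of SW1710 cells, determined with a cell viability assay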
Description: SANGER: Inhibition of human SW1710 cell growth in a cell viability assay.

SK-MES-1 = tested on: SK-MES-1;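 further: growth inhibition of human SK-MES-1 cells, read out with a cell viability assay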
Description: SANGER: Inhibition of human SK-MES-1 cell growth in a cell viability assay.

SNU-449 = tested on: SNU-449
Description: SANGER: Inhibition of human SNU-449 cell growth in a cell viability assay.

NCI-H1993 = tested on: NCI-H1993;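 further: growth inhibition of the cancer cell line, assessed with a cell viability assay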
Description: SANGER: Inhibition of human NCI-H1993 cell growth in a cell viability assay.

D-423MG = tested on: D-423MG
Description: SANGER: Inhibition of human D-423MG cell growth in a cell viability assay.

HCC1806 = tested on: HCC1806;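 further: growth inhibition of the cancer cell line, determined with a cell viability assay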
Description: SANGER: Inhibition of human HCC1806 cell growth in a cell viability assay.

FTC-133 = tested on: FTC-133
SF-295 = tested on: SF-295;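 further: growth inhibition of SF-295 cells, read out with a cell viability assay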
Description: SANGER: Inhibition of human SF295 cell growth in a cell viability assay.

AN3-CA = tested on: AN3-CA;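 further: growth inhibition of human AN3-CA cells measured by a cell viability assay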
Description: SANGER: Inhibition of human AN3-CA cell growth in a cell viability assay.

HCT-116 = tested on: HCT-116
Description: SANGER: Inhibition of human HCT-116 cell growth in a cell viability assay.

Compound `CS(=O)(=O)c1ccc(C(=O)Nc2ccc(Cl)c(-c3ccccn3)c2)c(Cl)c1` [VISMODEGIB] has an IC50 (ESS-1; Homo sapiens, ESS-1) greater than 10 µM, an IC50 (UMC-11; Homo sapiens, UMC-11) greater than 10 µM and an IC50 (SAOS-2; Homo sapiens, SAOS-2) greater than 10 µM. The IC50 (RVH-421; Homo sapiens, RVH-421) was greater than 10 µM, the IC50 (HT55; Homo sapiens, HT55) was greater than 10 µM and the IC50 (PFSK-1; Homo sapiens, PFSK-1) was greater than 10 µM. For the same compound, the IC50 (HuO9; Homo sapiens, HuO9) was greater than 10 µM, the IC50 (KP-N-YN; Homo sapiens, KP-N-YN) was greater than 10 µM and the IC50 (NCI-H2122; Homo sapiens, NCI-H2122) was greater than 10 µM. For the same compound, the IC50 (PA-1; Homo sapiens, PA-1) was greater than 10 µM, the IC50 (HT-1376; Homo sapiens, HT-1376) was greater than 10 µM and the IC50 (BHT-101; Homo sapiens, BHT-101) was greater than 10 µM. For the same compound, the IC50 (SW1463; Homo sapiens, SW1463) was greater than 10 µM, the IC50 (NB7; Homo sapiens, NB7) was greater than 10 µM and the IC50 (BFTC-905; Homo sapiens, BFTC-905) was greater than 10 µM. It also gave an IC50 (CAL-51; Homo sapiens, CAL-51) greater than 10 µM, an IC50 (KYSE-150 cell line; Homo sapiens, KYSE-150) greater than 10 µM and an IC50 (HOP-92; Homo sapiens, HOP-92) greater than 10 µM. The IC50 (MG-63; Homo sapiens, MG-63) was greater than 10 µM, the IC50 (H-EMC-SS; Homo sapiens, H-EMC-SS) was greater than 10 µM and the IC50 (HCT-15; Homo sapiens, HCT-15) was greater than 10 µM. For the same compound, the IC50 (CP50-MEL-B; Homo sapiens, CP50-MEL-B) was greater than 10 µM, the IC50 (JEG-3; Homo sapiens, JEG-3) was greater than 10 µM and the IC50 (CAL-54; Homo sapiens, CAL-54) was greater than 10 µM. It also gave an IC50 (YKG-1; Homo sapiens, YKG-1) greater than 10 µM, an IC50 (SW1710; Homo sapiens, SW1710) greater than 10 µM and an IC50 (SK-MES-1; Homo sapiens, SK-MES-1) greater than 10 µM. For the same compound, the IC50 (SNU-449; Homo sapiens, SNU-449) was greater than 10 µM, the IC50 (NCI-H1993; Homo sapiens, NCI-H1993) was greater than 10 µM and the IC50 (D-423MG; Homo sapiens, D-423MG) was greater than 10 µM. It also gave an IC50 (HCC1806; Homo sapiens, HCC1806) greater than 10 µM, an IC50 (FTC-133; Homo sapiens, FTC-133) greater than 10 µM and an IC50 (SF-295; Homo sapiens, SF-295) greater than 10 µM. It also gave an IC50 (AN3-CA; Homo sapiens, AN3-CA) greater than 10 µM and an IC50 (HCT-116; Homo sapiens, HCT-116) greater than 10 µM.
Work on CISPLATIN yielded an IC50 (ESS-1; ess-1) of 2.54 µM, an IC50 (UMC-11; umc-11) of 903 µM and an IC50 (SAOS-2; saos-2) of 36.3 µM. For the same compound, the IC50 (RVH-421; rvh-421) was 40.6 µM, the IC50 (HT55; ht55) was 118 µM and the IC50 (PFSK-1; pfsk-1) was 37.7 µM. The IC50 (HuO9; huo9) was 38.7 µM, the IC50 (KP-N-YN; kp-n-yn) was 581 µM and the IC50 (NCI-H2122; nci-h2122) was 15.3 µM. For the same compound, the IC50 (PA-1; pa-1) was 0.79 µM, the IC50 (HT-1376; ht-1376) was 98.9 µM and the IC50 (BHT-101; bht-101) was 5.82 µM. For the same compound, the IC50 (SW1463; sw1463) was 189 µM, the IC50 (NB7; nb7) was 15.4 µM and the IC50 (BFTC-905; bftc-905) was 2.58 µM. For the same compound, the IC50 (CAL-51; cal-51) was 16.4 µM, the IC50 (KYSE-150 cell line; kyse-150) was 411 µM and the IC50 (HOP-92; hop-92) was 3.51 µM. For the same compound, the IC50 (MG-63; mg-63) was 100 µM, the IC50 (H-EMC-SS; h-emc-ss) was 21.2 µM and the IC50 (HCT-15; hct-15) was 267 µM. The IC50 (CP50-MEL-B; cp50-mel-b) was 217 µM, the IC50 (JEG-3; jeg-3) was 10.3 µM and the IC50 (CAL-54; cal-54) was 12.2 µM. For the same compound, the IC50 (YKG-1; ykg-1) was 10.3 µM, the IC50 (SW1710; sw1710) was 44.4 µM and the IC50 (SK-MES-1; sk-mes-1) was 129 µM. It also gave an IC50 (SNU-449; snu-449) of 72 µM, an IC50 (NCI-H1993; nci-h1993) of 1350 µM and an IC50 (D-423MG; d-423mg) of 13.9 µM. The IC50 (HCC1806; hcc1806) was 7.33 µM, the IC50 (FTC-133; ftc-133) was 4.77 µM and the IC50 (SF-295; sf-295) was 9.34 µM. The IC50 (AN3-CA; an3-ca) was 9.94 µM and the IC50 (HCT-116; hct-116) was 8.68 µM.
`CC(C)c1ccccc1Cc1cc(C(=O)Nc2ccc(S(=O)(=O)c3ccccc3C(C)(C)C)cc2)c(O)c(O)c1O` was tested, and the IC50 (ESS-1; Homo sapiens, ESS-1) was 0.141 µM, the IC50 (UMC-11; Homo sapiens, UMC-11) was 1.31 µM and the IC50 (SAOS-2; Homo sapiens, SAOS-2) was 0.613 µM. For the same compound, the IC50 (RVH-421; Homo sapiens, RVH-421) was 0.253 µM, the IC50 (HT55; Homo sapiens, HT55) was 0.651 µM and the IC50 (PFSK-1; Homo sapiens, PFSK-1) was 0.177 µM. It also gave an IC50 (HuO9; Homo sapiens, HuO9) of 0.727 µM, an IC50 (KP-N-YN; Homo sapiens, KP-N-YN) of 15.9 µM and an IC50 (NCI-H2122; Homo sapiens, NCI-H2122) of 0.538 µM. It also gave an IC50 (PA-1; Homo sapiens, PA-1) of 0.134 µM, an IC50 (HT-1376; Homo sapiens, HT-1376) of 1.9 µM and an IC50 (BHT-101; Homo sapiens, BHT-101) of 0.0218 µM. The IC50 (SW1463; Homo sapiens, SW1463) was 64.8 µM, the IC50 (NB7; Homo sapiens, NB7) was 0.0293 µM and the IC50 (BFTC-905; Homo sapiens, BFTC-905) was 0.708 µM. The IC50 (CAL-51; Homo sapiens, CAL-51) was 0.349 µM, the IC50 (KYSE-150 cell line; Homo sapiens, KYSE-150) was 0.465 µM and the IC50 (HOP-92; Homo sapiens, HOP-92) was 0.358 µM. It also gave an IC50 (MG-63; Homo sapiens, MG-63) of 0.112 µM, an IC50 (H-EMC-SS; Homo sapiens, H-EMC-SS) of 0.378 µM and an IC50 (HCT-15; Homo sapiens, HCT-15) of 0.202 µM. For the same compound, the IC50 (CP50-MEL-B; Homo sapiens, CP50-MEL-B) was 0.0696 µM, the IC50 (JEG-3; Homo sapiens, JEG-3) was 0.736 µM and the IC50 (CAL-54; Homo sapiens, CAL-54) was 0.161 µM. It also gave an IC50 (YKG-1; Homo sapiens, YKG-1) of 0.0298 µM, an IC50 (SW1710; Homo sapiens, SW1710) of 0.388 µM and an IC50 (SK-MES-1; Homo sapiens, SK-MES-1) of 1.04 µM. For the same compound, the IC50 (SNU-449; Homo sapiens, SNU-449) was 0.372 µM, the IC50 (NCI-H1993; Homo sapiens, NCI-H1993) was 1.04 µM and the IC50 (D-423MG; Homo sapiens, D-423MG) was 0.473 µM. The IC50 (HCC1806; Homo sapiens, HCC1806) was 1.43 µM, the IC50 (FTC-133; Homo sapiens, FTC-133) was 0.607 µM and the IC50 (SF-295; Homo sapiens, SF-295) was 0.629 µM. It also gave an IC50 (AN3-CA; Homo sapiens, AN3-CA) of 0.898 µM and an IC50 (HCT-116; Homo sapiens, HCT-116) of 0.0527 µM.
